Measured values from patent US10738057B2, “Tertiary alcohols as PI3K-γ inhibitors” (Incyte Corporation, priority 2017, dated 2020).
Counter-ions that a name gives are not always drawn. Like-named read-outs stand apart in the source and are kept apart here.

Experiments:
[1] = target: PI3Kγ (p110γ) Recombinant Human Protein (Homo sapiens (Human), UniProt P48736); experiment: PI3K-γ scintillation proximity assay; assay type: biochemical; settings: 20 μM PIP2, 2 μM ATP, 13 nM PI3Kγ, 120 min, room temperature
PI3Kγ (p110γ) Recombinant Human Protein, sequence (P48736 whole entry): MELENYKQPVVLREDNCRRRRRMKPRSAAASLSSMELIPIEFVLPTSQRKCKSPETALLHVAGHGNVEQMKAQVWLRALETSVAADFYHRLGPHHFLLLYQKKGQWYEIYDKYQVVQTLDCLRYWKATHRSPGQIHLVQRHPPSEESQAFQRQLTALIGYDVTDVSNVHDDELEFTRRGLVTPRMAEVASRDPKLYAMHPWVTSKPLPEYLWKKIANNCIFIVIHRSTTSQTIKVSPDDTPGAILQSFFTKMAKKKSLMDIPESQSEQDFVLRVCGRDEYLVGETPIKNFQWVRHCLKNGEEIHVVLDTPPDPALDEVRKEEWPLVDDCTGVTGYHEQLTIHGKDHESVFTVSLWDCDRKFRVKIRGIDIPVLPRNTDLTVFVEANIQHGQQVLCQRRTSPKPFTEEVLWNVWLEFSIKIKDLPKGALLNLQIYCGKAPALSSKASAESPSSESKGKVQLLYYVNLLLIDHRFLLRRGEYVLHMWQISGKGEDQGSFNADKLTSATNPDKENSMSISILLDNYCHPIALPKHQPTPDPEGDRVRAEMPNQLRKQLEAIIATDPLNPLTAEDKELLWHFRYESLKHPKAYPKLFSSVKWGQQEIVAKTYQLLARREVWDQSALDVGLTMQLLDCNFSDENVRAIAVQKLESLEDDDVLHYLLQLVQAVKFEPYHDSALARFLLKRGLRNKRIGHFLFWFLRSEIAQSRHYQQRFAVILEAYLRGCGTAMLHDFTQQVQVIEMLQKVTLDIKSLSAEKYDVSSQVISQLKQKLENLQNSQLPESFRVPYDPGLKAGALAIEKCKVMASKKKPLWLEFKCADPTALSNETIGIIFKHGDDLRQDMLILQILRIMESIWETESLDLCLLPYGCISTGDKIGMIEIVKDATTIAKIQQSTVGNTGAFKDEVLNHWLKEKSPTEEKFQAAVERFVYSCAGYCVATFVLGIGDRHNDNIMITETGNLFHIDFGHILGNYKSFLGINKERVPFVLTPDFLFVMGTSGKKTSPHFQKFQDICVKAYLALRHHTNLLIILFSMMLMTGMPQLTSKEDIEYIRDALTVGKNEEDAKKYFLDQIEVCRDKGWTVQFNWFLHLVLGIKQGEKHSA
Procedure, shortened: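 Radiometric SPA in 20 mM MOPS pH 6.7, 10 mM MgCl2, 5 mM DTT, 0.03% CHAPS, 2% DMSO. Stopped with EDTA and WGA SPA beads for scintillation counting. IC50 fitted from % solvent-control activity versus log concentration.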

[2] = target: PI3Kδ (p110δ/p85α) Recombinant Human Protein (Homo sapiens (Human), UniProt O00329); experiment: PI3Kδ scintillation proximity assay; assay type: biochemical; settings: 20 μM PIP2, 2 μM ATP, 3.4 nM PI3Kδ, 120 min, room temperature; read-out: PI3Kδ IC50
PI3Kδ (p110δ/p85α) Recombinant Human Protein, sequence (O00329 whole entry): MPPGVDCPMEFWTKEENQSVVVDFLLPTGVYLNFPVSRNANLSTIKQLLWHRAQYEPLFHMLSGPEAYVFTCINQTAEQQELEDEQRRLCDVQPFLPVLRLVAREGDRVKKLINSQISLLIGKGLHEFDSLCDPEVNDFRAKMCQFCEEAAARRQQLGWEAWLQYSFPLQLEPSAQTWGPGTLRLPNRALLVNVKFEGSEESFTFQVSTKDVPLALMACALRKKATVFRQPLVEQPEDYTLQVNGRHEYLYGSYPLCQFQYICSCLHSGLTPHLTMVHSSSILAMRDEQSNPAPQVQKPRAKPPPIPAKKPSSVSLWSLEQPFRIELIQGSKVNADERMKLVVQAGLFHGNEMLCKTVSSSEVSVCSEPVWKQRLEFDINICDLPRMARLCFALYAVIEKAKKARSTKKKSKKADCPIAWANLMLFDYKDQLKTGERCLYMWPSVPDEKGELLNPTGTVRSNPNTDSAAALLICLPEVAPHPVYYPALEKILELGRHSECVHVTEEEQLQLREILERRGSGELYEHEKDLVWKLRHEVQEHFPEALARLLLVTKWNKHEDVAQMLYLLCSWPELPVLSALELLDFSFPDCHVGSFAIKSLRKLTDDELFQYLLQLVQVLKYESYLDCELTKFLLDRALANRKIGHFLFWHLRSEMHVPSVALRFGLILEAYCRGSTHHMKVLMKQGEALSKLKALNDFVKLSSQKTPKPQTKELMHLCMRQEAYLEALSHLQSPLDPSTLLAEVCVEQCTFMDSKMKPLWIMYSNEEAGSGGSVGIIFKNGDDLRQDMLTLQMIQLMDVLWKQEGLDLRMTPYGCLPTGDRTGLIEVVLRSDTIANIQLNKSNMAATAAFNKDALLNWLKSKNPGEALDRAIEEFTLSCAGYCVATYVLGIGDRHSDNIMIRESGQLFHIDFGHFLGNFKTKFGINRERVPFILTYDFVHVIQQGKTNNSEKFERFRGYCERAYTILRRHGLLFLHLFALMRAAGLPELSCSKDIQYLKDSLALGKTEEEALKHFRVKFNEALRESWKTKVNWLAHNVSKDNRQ
PI3Kδ (p110δ/p85α) Recombinant Human Protein, sequence (P27986 whole entry partner): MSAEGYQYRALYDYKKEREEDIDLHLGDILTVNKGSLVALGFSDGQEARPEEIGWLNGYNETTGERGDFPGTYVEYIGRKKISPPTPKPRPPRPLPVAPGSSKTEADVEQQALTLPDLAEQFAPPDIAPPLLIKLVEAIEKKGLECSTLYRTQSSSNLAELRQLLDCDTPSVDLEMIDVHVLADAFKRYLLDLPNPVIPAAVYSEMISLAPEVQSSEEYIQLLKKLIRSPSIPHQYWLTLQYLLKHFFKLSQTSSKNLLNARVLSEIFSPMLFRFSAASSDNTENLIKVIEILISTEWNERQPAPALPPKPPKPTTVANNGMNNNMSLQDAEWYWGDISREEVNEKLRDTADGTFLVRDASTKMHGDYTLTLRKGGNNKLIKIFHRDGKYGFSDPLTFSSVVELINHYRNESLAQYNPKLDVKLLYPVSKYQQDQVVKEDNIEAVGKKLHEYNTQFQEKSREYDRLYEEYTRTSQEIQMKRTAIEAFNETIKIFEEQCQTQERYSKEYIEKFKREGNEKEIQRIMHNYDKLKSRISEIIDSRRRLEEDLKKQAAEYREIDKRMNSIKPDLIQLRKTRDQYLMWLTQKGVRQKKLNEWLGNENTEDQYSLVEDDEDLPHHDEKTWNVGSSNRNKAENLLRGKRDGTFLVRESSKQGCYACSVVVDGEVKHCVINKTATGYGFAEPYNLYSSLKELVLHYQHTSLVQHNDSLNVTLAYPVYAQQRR
Procedure, shortened: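 Recombinant human p110δ/p85α was run at room temperature in 20 mM MOPS pH 6.7, 10 mM MgCl2, 5 mM DTT, 0.03% CHAPS, 2% DMSO. Substrates were 20 µM PIP2 and 2 µM ATP with [γ-33P]ATP. Product was captured overnight on WGA SPA beads and counted by scintillation; IC50 fitted from percent of solvent control versus log concentration.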

[3] = system: Phosphorylated Ribosomal Protein S6 (RPS6) in THP-1 cells; experiment: THP-1 RPS6 ELISA assay; assay type: cell-based, Human; settings: serum starved, 2 h compound, 10 nM MCP-1 for 15 min, phospho-RPS6 ELISA, read-out: PI3Kγ_THP1_RPS6_ELISA IC50
Procedure, shortened: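 Phospho-RPS6 in lysates measured by ELISA at 450 nm, corrected at 540 nm, after MCP-1 challenge (10 nM, 15 min) of THP-1 cells that were starved overnight and exposed to test compound for 2 h at 37° C, 2×10^5 cells/well. Curve fit of percent inhibition gives IC50.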

[4] = Homo sapiens, THP-1, THP-1 cells

Row | Compound | IC50 [1] [nM] | IC50 [2] [nM] | IC50 [3, 4] [nM] | IC50 ([3]; THP-1 cells) [nM]
1 | Cc1ncc(-c2nc(N)c3ncc(-c4cc(C(C)(O)C(F)F)ccc4C)n3n2)o1 (single isomer, unassigned) [Example 52, 2-(3-(4-Amino-2-(2-methyloxazol-5-yl)imidazo[2,1-f][1,2,4]triazin-7-yl)-4-methylphenyl)-1,1-difluoropropan-2-ol trifluoroacetate salt] | < 100 | 100 to 500 | 100 to 500 | –
2 | Cc1ccc(C(C)(O)C(F)(F)F)cc1-c1cnc2c(N)nc(-c3ccnc(CO)c3)cn12 (single isomer, unassigned) [Example 11, 2-(3-(8-amino-6-(2-(hydroxymethyl)pyridin-4-yl)imidazo[1,2-a]pyrazin-3-yl)-4-methylphenyl)-1,1,1-trifluoropropan-2-ol] | < 100 | < 100 | 100 to 500 | –
3 | CNC(=O)C1CC1c1cn2c(-c3cc(C(C)(O)C(F)F)ccc3C)cnc2c(N)n1 (stereo not drawn) [Example 76, 2-(8-Amino-3-(5-(1,1-difluoro-2-hydroxypropan-2-yl)-2-methylphenyl)imidazo[1,2-a]pyrazin-6-yl)-N-methylcyclopropane-1-carboxamide] | < 100 | 100 to 500 | 100 to 500 | –
4 | Cc1ccc(C(O)(C(N)=O)C(F)(F)F)cc1-c1cnc2c(N)nc(C(F)(F)F)cn12 (stereo not drawn) [Example 82, 2-(3-(8-Amino-6-(trifluoromethyl)imidazo[1,2-a]pyrazin-3-yl)-4-methylphenyl)-3,3,3-trifluoro-2-hydroxypropanamide] | < 100 | < 100 | < 100 | –
5 | Cc1ccc(C(C)(O)C(F)F)cc1-c1cnc2c(N)nc(-c3ccc(B(O)O)cc3)cn12 (stereo not drawn) [Example 108, (4-(8-amino-3-(5-(1,1-difluoro-2-hydroxypropan-2-yl)-2-methylphenyl)imidazo[1,2-a]pyrazin-6-yl)phenyl)boronic acid trifluoroacetate salt] | < 100 | < 100 | < 100 | –
6 | Cc1ccc(C(C)(O)C(F)(F)F)cc1-c1cnc2c(N)nc(C(=O)NCC(C)(C)O)cn12 (single isomer, unassigned) [Example 63, 8-amino-N-(2-hydroxy-2-methylpropyl)-3-(2-methyl-5-(1,1,1-trifluoro-2-hydroxypropan-2-yl)phenyl)imidazo[1,2-a]pyrazine-6-carboxamide] | < 100 | 100 to 500 | – | 100 to 500
7 | Cc1ccc(C(C)(O)C(F)F)cc1-c1cnc2c(N)nc(C(F)(F)F)cn12 (single isomer, unassigned) [Example 26, 2-(3-(8-Amino-6-(trifluoromethyl)imidazo[1,2-a]pyrazin-3-yl)-4-methylphenyl)-1,1-difluoropropan-2-ol] | < 100 | 500 to 2000 | – | 500 to 1000
8 | Cc1ccc(C(C)(O)C(F)F)cc1-c1cnc2c(N)nc(C3CC3CO)cn12 (single isomer, unassigned) [Example 79, 2-(3-(8-Amino-6-(2-(hydroxymethyl)cyclopropyl)imidazo[1,2-a]pyrazin-3-yl)-4-methylphenyl)-1,1-difluoropropan-2-ol] | < 100 | 500 to 2000 | 100 to 500 | –
9 | CNCCC(O)(c1ccc(C)c(-c2cnc3c(N)nc(C(F)(F)F)cn23)c1)C(F)(F)F (single isomer, unassigned) [Example 16, 2-(3-(8-Amino-6-(trifluoromethyl)imidazo[1,2-a]pyrazin-3-yl)-4-methylphenyl)-1,1,1-trifluoro-4-(methylamino)butan-2-ol] | < 100 | 100 to 500 | – | 500 to 1000
10 | 2-(3-(8-Amino-6-(3-methyl-1H-pyrazol-4-yl)imidazo[1,2-a]pyrazin-3-yl)-4-methylphenyl)-1,1-difluoropropan-2-ol, 1.2TFA [Example 47] | < 100 | < 100 | – | < 100
11 | [2H]C([2H])([2H])c1ccc(C(C)(O)C(F)(F)F)cc1-c1cnc2c(N)nc(-c3cnn(C(CC#N)C4CCC4)c3)cn12 (stereo not drawn) [Example 86, 3-(4-(8-Amino-3-(2-(methyl-d3)-5-(1,1,1-trifluoro-2-hydroxypropan-2-yl)phenyl)imidazo[1,2-a]pyrazin-6-yl)-1H-pyrazol-1-yl)-3-cyclobutylpropanenitrile, trifluoroacetate] | < 100 | 100 to 500 | 100 to 500 | –
12 | [2H]C([2H])([2H])c1ccc(C(C)(O)C(F)(F)F)cc1-c1cnc2c(N)nc(C(C)(C)O)cn12 (single isomer, unassigned) [Example 253, 2-(3-(8-Amino-6-(2-hydroxypropan-2-yl)imidazo[1,2-a]pyrazin-3-yl)-4-(methyl-d3)phenyl)-1,1,1-trifluoropropan-2-ol trifluoroacetate salt] | < 100 | 100 to 500 | 100 to 500 | –
13 | Cc1ccc(C(C)(O)C(F)F)cc1-c1cnc2c(N)nc(-c3cn(C)nc3C)cn12 (stereo not drawn) [Example 38, 2-(3-(8-Amino-6-(1,3-dimethyl-1H-pyrazol-4-yl)imidazo[1,2-a]pyrazin-3-yl)-4-methylphenyl)-1,1-difluoropropan-2-ol] | < 100 | < 100 | < 100 | –
14 | Cc1ccc(C(O)(C(N)=O)C(F)(F)F)cc1-c1cnc2c(N)nc(C(=O)NC34CC(F)(C3)C4)cn12 (stereo not drawn) [Example 288, 8-Amino-3-(5-(3-amino-1,1,1-trifluoro-2-hydroxy-3-oxopropan-2-yl)-2-methylphenyl)-N-(3-fluorobicyclo[1.1.1]pentan-1-yl)imidazo[1,2-a]pyrazine-6-carboxamide trifluoroacetate salt] | < 100 | 100 to 500 | < 100 | –
15 | Cc1nc(N)c2ncc(-c3cc(C(O)(C(F)F)C(F)F)ccc3C)n2n1 [Example 112, 2-(3-(4-Amino-2-methylimidazo[2,1-f][1,2,4]triazin-7-yl)-4-methylphenyl)-1,1,3,3-tetrafluoropropan-2-ol trifluoroacetate salt] | < 100 | 500 to 2000 | 500 to 1000 | –
16 | Cc1ccc(C(O)(C(N)=O)C(F)(F)F)cc1-c1cnc2c(N)nc(C(=O)NC3(C(F)(F)F)CCOCC3)cn12 (stereo not drawn) [Example 85, 8-Amino-3-(5-(3-amino-1,1,1-trifluoro-2-hydroxy-3-oxopropan-2-yl)-2-methylphenyl)-N-(4-(trifluoromethyl)tetrahydro-2H-pyran-4-yl)imidazo[1,2-a]pyrazine-6-carboxamide, trifluoroacetate] | < 100 | 500 to 2000 | 100 to 500 | –
17 | Cc1cc(-c2cn3c(-c4cc(C(C)(O)C(F)F)ccc4C)cnc3c(N)n2)on1 (stereo not drawn) [Example 48, 2-(3-(8-Amino-6-(3-methylisoxazol-5-yl)imidazo[1,2-a]pyrazin-3-yl)-4-methylphenyl)-1,1-difluoropropan-2-ol trifluoroacetate] | < 100 | 100 to 500 | 100 to 500 | –
18 | Cc1ccc(C(C)(O)C(F)F)cc1-c1cnc2c(N)nc(-c3cncc(S(C)(=O)=O)c3)cn12 (stereo not drawn) [Example 106, 2-(3-(8-Amino-6-(5-(methylsulfonyl)pyridin-3-yl)imidazo[1,2-a]pyrazin-3-yl)-4-methylphenyl)-1,1-difluoropropan-2-ol] | < 100 | 100 to 500 | 100 to 500 | –
